Assay results from patent publication US20110212137A1, “INHALABLE PHARMACEUTICAL COMPOSITION” (TEVA BRANDED PHARMACEUTICAL PRODUCTS R&D, INC., priority 2010, published 2011).

Test system: Asthma patients
Experiment: Retrospective observational cohort study (UK General Practice Research Database): odds of successful asthma control after ICS increase
Format: in vivo
Details: compared with Qvar; as the primary proxy plus average daily prescribed salbutamol no more than 200 mcg and terbutaline 500 mcg; 12 month follow-up
Description: Qvar® and other inhaled corticosteroids (ICS) CFC-beclometasone (BDP) and fluticasone propionate (FP) were compared in a large representative, UK clinical database.
Patients were eligible if they had data available for the twelve months prior to AND twelve months after the date of ICS increase. Multiple logistic regression, adjusted for baseline severity, provided odds of successful asthma control (no asthma hospital attendances, oral steroids, consultations or hospital admissions for lower respiratory tract infections requiring antibiotics) during 12 month follow-up. Poisson regression was used to compare asthma exacerbation rates (unscheduled hospital admissions/A&E attendances for asthma or use of oral steroids).
Study Design: A retrospective, observational, cohort study design was used, consisting of two time periods: a baseline period for confounder definition (minimum of one year before index prescription date) and an outcome period of one year post-index prescription date. The study design is shown in schematic format in FIG. 1.
Statistical Analysis: Descriptive statistics were used to compare baseline outcomes. Multiple logistic regression, adjusted for baseline severity and other potential confounders found at baseline, was used to determine the odds of successful asthma control. Poisson regression was used to compare exacerbation rates. […]

Compound: CCC(=O)O[C@]1(C(=O)SCF)[C@H](C)C[C@H]2[C@@H]3C[C@H](F)C4=CC(=O)C=C[C@]4(C)[C@@]3(F)[C@@H](O)C[C@@]21C [FP, fluticasone propionate]
- Adjusted odds ratio for successful asthma control, revised definition including SABA use: 0.90
